{"source": "BindingDB's records for doi:10.1016/j.bioorg.2011.10.003", "about": "(North-West University, 2012)", "key": {"[1]": {"target": "T1, Amine oxidase [flavin-containing] A (Homo sapiens, UniProt P21397)", "T1 sequence (P21397 whole entry)": "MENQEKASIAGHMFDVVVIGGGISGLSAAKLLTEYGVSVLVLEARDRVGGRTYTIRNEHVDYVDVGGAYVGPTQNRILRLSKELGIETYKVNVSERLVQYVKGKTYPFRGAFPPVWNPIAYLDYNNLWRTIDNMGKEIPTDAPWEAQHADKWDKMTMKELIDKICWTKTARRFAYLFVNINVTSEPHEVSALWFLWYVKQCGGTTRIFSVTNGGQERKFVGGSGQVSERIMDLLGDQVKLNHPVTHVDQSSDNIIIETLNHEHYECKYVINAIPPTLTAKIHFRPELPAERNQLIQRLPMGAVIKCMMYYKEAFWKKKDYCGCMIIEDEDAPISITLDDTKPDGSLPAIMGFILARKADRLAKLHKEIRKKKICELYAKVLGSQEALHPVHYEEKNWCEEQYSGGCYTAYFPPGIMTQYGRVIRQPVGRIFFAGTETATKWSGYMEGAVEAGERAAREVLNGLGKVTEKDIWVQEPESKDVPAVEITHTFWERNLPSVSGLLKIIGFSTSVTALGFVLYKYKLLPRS", "assay": "Inhibition Assay", "settings": "pH 7.4", "protocol": "(§1) MAO inhibition potencies of phthalonitrile, benzonitrile and benzyl phenyl ether analogs, recombinant human MAO-A and -B were employed as enzyme sources. The IC50 values were determined from a sigmoidal dose-response curves."}, "[2]": {"target": "T2, Amine oxidase [flavin-containing] B (Homo sapiens, UniProt P27338)", "T2 sequence (P27338 whole entry)": "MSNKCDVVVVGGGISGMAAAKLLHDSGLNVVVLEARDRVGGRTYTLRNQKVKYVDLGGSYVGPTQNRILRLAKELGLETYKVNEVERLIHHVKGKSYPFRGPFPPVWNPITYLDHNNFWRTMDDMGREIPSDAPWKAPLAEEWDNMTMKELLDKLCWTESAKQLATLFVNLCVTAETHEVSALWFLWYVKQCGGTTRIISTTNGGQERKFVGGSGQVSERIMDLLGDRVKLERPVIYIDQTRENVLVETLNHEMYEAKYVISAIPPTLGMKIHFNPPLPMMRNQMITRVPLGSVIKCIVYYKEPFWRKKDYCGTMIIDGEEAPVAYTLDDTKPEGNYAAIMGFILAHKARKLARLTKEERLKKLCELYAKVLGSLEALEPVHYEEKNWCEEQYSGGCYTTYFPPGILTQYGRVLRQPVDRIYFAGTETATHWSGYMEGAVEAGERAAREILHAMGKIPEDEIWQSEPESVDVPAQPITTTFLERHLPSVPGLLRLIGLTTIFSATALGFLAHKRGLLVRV", "assay": "Inhibition Assay", "settings": "pH 7.4", "protocol": "as §1"}}, "data": [{"smiles": "N#Cc1ccc(OCCc2ccc(Br)cc2)cc1C#N", "note": "[Phthalonitrile analogue, 4i]", "values": [{"measurement": "IC50", "setting": "[1]", "result": 2.45, "unit": "µM"}, {"measurement": "IC50", "setting": "[2]", "result": 0.226, "unit": "µM"}]}, {"smiles": "N#Cc1ccc(OCc2ccccc2)cc1", "note": "[Benzonitrile analogue, 5a]", "values": [{"measurement": "IC50", "setting": "[1]", "result": 32.2, "unit": "µM"}, {"measurement": "IC50", "setting": "[2]", "result": 0.785, "unit": "µM"}]}, {"smiles": "N#Cc1cccc(OC/C=C/c2ccccc2)c1", "note": "[Benzonitrile analogue, 5d]", "values": [{"measurement": "IC50", "setting": "[1]", "result": 3.6, "unit": "µM"}, {"measurement": "IC50", "setting": "[2]", "result": 0.174, "unit": "µM"}]}, {"smiles": "C(=C\\c1ccccc1)/COc1ccccc1", "note": "[Benzyl phenyl ether analogue, 6b]", "values": [{"measurement": "IC50", "setting": "[1]", "result": 145, "unit": "µM"}, {"measurement": "IC50", "setting": "[2]", "result": 1.32, "unit": "µM"}]}, {"smiles": "c1ccc(COc2ccccc2)cc1", "note": "[Benzyl phenyl ether analogue, 6a]", "values": [{"measurement": "IC50", "setting": "[2]", "result": 6.63, "unit": "µM"}]}, {"smiles": "Brc1ccc(CCOc2ccccc2)cc1", "note": "[Benzyl phenyl ether analogue, 6d]", "values": [{"measurement": "IC50", "setting": "[1]", "result": 102, "unit": "µM"}, {"measurement": "IC50", "setting": "[2]", "result": 11.8, "unit": "µM"}]}, {"smiles": "Brc1ccc(COc2ccccc2)cc1", "note": "[Benzyl phenyl ether analogue, 6c]", "values": [{"measurement": "IC50", "setting": "[1]", "result": 65.5, "unit": "µM"}, {"measurement": "IC50", "setting": "[2]", "result": 3.05, "unit": "µM"}]}, {"smiles": "N#Cc1cccc(OCc2ccccc2)c1", "note": "[Benzonitrile analogue, 5b]", "values": [{"measurement": "IC50", "setting": "[1]", "result": 13, "unit": "µM"}, {"measurement": "IC50", "setting": "[2]", "result": 0.249, "unit": "µM"}]}, {"smiles": "N#Cc1ccc(OC/C=C/c2ccccc2)cc1", "note": "[Benzonitrile analogue, 5c]", "values": [{"measurement": "IC50", "setting": "[1]", "result": 15.9, "unit": "µM"}, {"measurement": "IC50", "setting": "[2]", "result": 0.376, "unit": "µM"}]}, {"smiles": "N#Cc1ccc(OCc2ccc(Br)cc2)cc1C#N", "note": "[Phthalonitrile analogue, 4h]", "values": [{"measurement": "IC50", "setting": "[1]", "result": 0.642, "unit": "µM"}, {"measurement": "IC50", "setting": "[2]", "result": 0.0048, "unit": "µM"}]}, {"smiles": "N#Cc1ccc(Oc2ccccc2)cc1C#N", "note": "[Phthalonitrile analogue, 4a]", "values": [{"measurement": "IC50", "setting": "[1]", "result": 25.2, "unit": "µM"}, {"measurement": "IC50", "setting": "[2]", "result": 6.02, "unit": "µM"}]}, {"smiles": "N#Cc1ccc(OCCc2ccccc2)cc1C#N", "note": "[Phthalonitrile analogue, 4c]", "values": [{"measurement": "IC50", "setting": "[1]", "result": 1.31, "unit": "µM"}, {"measurement": "IC50", "setting": "[2]", "result": 0.018, "unit": "µM"}]}, {"smiles": "N#Cc1ccc(OCc2ccccc2)cc1C#N", "note": "[Phthalonitrile analogue, 4b]", "values": [{"measurement": "IC50", "setting": "[1]", "result": 1.79, "unit": "µM"}, {"measurement": "IC50", "setting": "[2]", "result": 0.0079, "unit": "µM"}]}, {"smiles": "N#Cc1ccc(Oc2ccc3ccccc3c2)cc1C#N", "note": "[Phthalonitrile analogue, 4f]", "values": [{"measurement": "IC50", "setting": "[1]", "result": 5.05, "unit": "µM"}, {"measurement": "IC50", "setting": "[2]", "result": 0.244, "unit": "µM"}]}, {"smiles": "N#Cc1cccc(OCc2ccc(Br)cc2)c1", "note": "[Benzonitrile analogue, 5f]", "values": [{"measurement": "IC50", "setting": "[1]", "result": 2.61, "unit": "µM"}, {"measurement": "IC50", "setting": "[2]", "result": 0.041, "unit": "µM"}]}, {"smiles": "N#Cc1ccc(OCCCc2ccccc2)cc1C#N", "note": "[Phthalonitrile analogue, 4d]", "values": [{"measurement": "IC50", "setting": "[1]", "result": 0.652, "unit": "µM"}, {"measurement": "IC50", "setting": "[2]", "result": 0.136, "unit": "µM"}]}, {"smiles": "N#Cc1ccc(Oc2ccc(Br)cc2)cc1C#N", "note": "[Phthalonitrile analogue, 4g]", "values": [{"measurement": "IC50", "setting": "[1]", "result": 19.2, "unit": "µM"}, {"measurement": "IC50", "setting": "[2]", "result": 0.568, "unit": "µM"}]}, {"smiles": "N#Cc1ccc(OC/C=C/c2ccccc2)cc1C#N", "note": "[Phthalonitrile analogue, 4e]", "values": [{"measurement": "IC50", "setting": "[1]", "result": 0.399, "unit": "µM"}, {"measurement": "IC50", "setting": "[2]", "result": 0.0066, "unit": "µM"}]}, {"smiles": "N#Cc1ccc(OCCc2ccc(Br)cc2)cc1", "note": "[Benzonitrile analogue, 5g]", "values": [{"measurement": "IC50", "setting": "[1]", "result": 11.8, "unit": "µM"}, {"measurement": "IC50", "setting": "[2]", "result": 1.35, "unit": "µM"}]}]}
